Literature values in PMC5377275 (ACS Omega, 2017).

System: cytosolic lysates

Row | Compound | Effect of inhibitor on ubiquitination of KGSYGK(FAM)RRR | other results
1 | KGSYGK(FAM)RRR |  | Ubiquitination of p53/MDM2-based peptide in cytosolic lysates: readily ubiquitinated
2 | O=C(O)COc1ccc(Br)cc1/C=C1\SC(=S)N(Cc2cccnc2)C1=O [SKPin C1] | impaired | 
3 | RRRG |  | Ubiquitination of primary degron in HeLa cell lysates (lysine residue positioned at the C-terminus): rapidly ubiquitinated
4 | O=C1c2ccccc2-c2nc3nonc3nc21 [SMER3] | impaired | 
